These results are taken from ChEMBL document CHEMBL1201862, “PubChem BioAssay data set” (2004).

Some test systems named below: MOLT-4; SN12C; U-251; HCT-15; SK-MEL-2; LOX IMVI; SF-268; SK-MEL-5; KM12; Malme-3M; HCC 2998; K562; SW-620; NCI-H460; M14; MCF7; CAKI-1; A498; OVCAR-4.
Test in all cases: growth of human tumour cells (NCI), 48 h

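Cells were grown in 96-well plates and exposed to each compound for 48 hours at five concentrations; endpoints were interpolated linearly between bracketing concentrations, or set to the highest concentration if not reached. Abbreviation: GI50, concentration required for 50% inhibition of growth.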 Activity calls are given as the source filed them. Rule as the data show it: active = GI50 up to about 1.1 µM and inactive = higher.

In the case of `COc1ccc(C(=O)c2cc(OC)c(OC)c(OC)c2)cc1OC`, the GI50 in the assay on MOLT-4 was 4.17 µM (inactive); in the assay on SN12C it was 7.21 µM (inactive); with U-251 it was 3.94 µM (inactive); in the assay with HCT-15 it was 1.58 µM; in the assay on SK-MEL-2, 3.08 µM (inactive); with LOX IMVI, 7.83 µM (inactive). For the same molecule, the GI50 with SF-268 is 7.8 µM (inactive); in the assay on SK-MEL-5, 4.44 µM (inactive); in the assay on KM12, 0.815 µM (active); in the assay with Malme-3M it was 5.93 µM (inactive); in the assay with HCC 2998, 2.81 µM (inactive); in the assay on K562, 2.28 µM (inactive). Besides, the GI50 in the assay on SW-620 is 3.52 µM (inactive); with NCI-H460, 3.34 µM (inactive); in the assay on M14, 8.83 µM (inactive); in the assay with MCF7, 2.24 µM (inactive).
Take `C/C=C/C1=C(Cl)C(=O)[C@@H](Cl)[C@@]1(O)C(=O)OC` [(+)-CRYPTOSPORIPSIN]: the GI50 with MOLT-4 is 3.66 µM (inactive); with CAKI-1 it was 2.39 µM (inactive); in the assay on SN12C, 2.65 µM (inactive); in the assay with U-251, 5.02 µM (inactive); in the assay with HCT-15 it was 1.73 µM; with SK-MEL-2 it was 2.72 µM (inactive). For the same molecule, the GI50 is 2.24 µM (inactive) with LOX IMVI; 10.6 µM (inactive) in the assay on SF-268; 5.73 µM (inactive) in the assay on SK-MEL-5; 7.13 µM (inactive) in the assay on KM12; 2 µM (inactive) with Malme-3M; 3.28 µM (inactive) in the assay with HCC 2998. In addition, the GI50 in the assay on A498 is 5.77 µM (inactive); with K562 it was 0.869 µM (active); in the assay with SW-620, 1.06 µM (active); in the assay with NCI-H460, 5.09 µM (inactive); with OVCAR-4, 2.09 µM (inactive); in the assay on M14 it was 3.13 µM (inactive). Besides, the GI50 with MCF7 was 1.48 µM (inactive).
On to `O=C(OCc1ccccc1)N1N=NC2C3CC(OCc4ccccc4)(OCc4ccccc4)C(O3)C21` (stereo unspecified), for which the GI50 in the assay with MOLT-4 is 5.5 µM (inactive); in the assay on CAKI-1, 25.7 µM (inactive); in the assay with SN12C, 41.9 µM (inactive); in the assay on U-251, 40.6 µM (inactive); in the assay on HCT-15, 34 µM; with SK-MEL-2, 16.3 µM (inactive). Besides, the GI50 was 15.1 µM (inactive) in the assay with LOX IMVI; 22.4 µM (inactive) in the assay with SF-268; 9.66 µM (inactive) in the assay on SK-MEL-5; 36.3 µM (inactive) in the assay with KM12; 16.1 µM (inactive) in the assay on Malme-3M; 27 µM (inactive) in the assay on HCC 2998. Besides, the GI50 in the assay with A498 was 41.7 µM (inactive); in the assay with K562, 11 µM (inactive); with SW-620 it was 20.6 µM (inactive); with NCI-H460, 39.9 µM (inactive); in the assay with OVCAR-4, 22.2 µM (inactive); in the assay on M14, 23.6 µM (inactive).
`O/N=C\C(=N/O)Nc1ccc(Cc2ccc(NC(/C=N\O)=N/O)cc2)cc1`: the GI50 in the assay on MOLT-4 was 30.8 µM (inactive); with CAKI-1, 18.8 µM (inactive); in the assay on SN12C, 35.3 µM (inactive); in the assay on U-251 it was 37.5 µM (inactive); in the assay with HCT-15 it was 75.3 µM; in the assay with SK-MEL-2, 50.7 µM (inactive). Further, the GI50 is 40.6 µM (inactive) in the assay with LOX IMVI; > 100 µM (inactive) in the assay with SF-268; 48.3 µM (inactive) in the assay with SK-MEL-5; 54 µM (inactive) with KM12; 24.7 µM (inactive) in the assay on Malme-3M; 83.9 µM (inactive) in the assay with HCC 2998. Further, the GI50 was 77.4 µM (inactive) with A498; 37.9 µM (inactive) in the assay on K562; 52.1 µM (inactive) in the assay on SW-620; 34.8 µM (inactive) in the assay on NCI-H460; 57.9 µM (inactive) in the assay with OVCAR-4; 27.5 µM (inactive) in the assay with M14.
In the case of `COC(=O)C(CC(=O)Nc1ccc(Cl)c(Cl)c1)C(=O)C(=O)NC1C2CC3CC(C2)CC1C3` (stereo unspecified), the GI50 with MOLT-4 was > 100 µM (inactive); with CAKI-1, > 100 µM (inactive); with SN12C it was > 100 µM (inactive); in the assay on U-251 it was > 100 µM (inactive); in the assay on HCT-15, greater than 100 µM; with SK-MEL-2 it was > 100 µM (inactive). Further, the GI50 in the assay on LOX IMVI, in the assay with SF-268, with SK-MEL-5, in the assay with KM12, with Malme-3M and in the assay on HCC 2998 was > 100 µM (inactive) throughout. The GI50 with A498, in the assay with K562, with SW-620, in the assay on NCI-H460, in the assay with OVCAR-4 and in the assay on M14 was > 100 µM (inactive) in each case.
For `O=C1C(=O)N(c2ccc(Cl)cc2)C(=O)/C(=N/c2cccc3c(=O)[nH][nH]c(=O)c23)C1c1nc2ccccc2o1` (stereo unspecified), the GI50 with MOLT-4 is > 100 µM (inactive); in the assay with CAKI-1, > 100 µM (inactive); in the assay on SN12C, > 100 µM (inactive); in the assay on U-251, > 100 µM (inactive); with HCT-15, greater than 100 µM; in the assay with SK-MEL-2, > 100 µM (inactive). The GI50 in the assay with LOX IMVI, in the assay with SF-268, in the assay with SK-MEL-5, in the assay on KM12, with Malme-3M and with HCC 2998 was > 100 µM (inactive) in each case. Besides, the GI50 with A498, with K562, in the assay with SW-620, in the assay on NCI-H460, in the assay with OVCAR-4 and with M14 was > 100 µM (inactive) in each case.
As for `S=C(/N=c1\sc(Nc2ccc(Cl)cc2)nc2sc3c(c12)CCN(N1CCc2c(sc4nc(Nc5ccc(Cl)cc5)s/c(=N\C(=S)Nc5ccc(Cl)cc5)c24)C1)C3)Nc1ccc(Cl)cc1`, the GI50 in the assay on MOLT-4 was 67 µM (inactive); with SN12C, 19.2 µM (inactive); in the assay on U-251 it was 25.1 µM (inactive); in the assay with HCT-15, 42.2 µM; in the assay with SK-MEL-2 it was 23.4 µM (inactive); in the assay with SF-268 it was > 100 µM (inactive). The GI50 with Malme-3M was > 100 µM (inactive); in the assay on SW-620, 38.8 µM (inactive); in the assay with NCI-H460, 33.8 µM (inactive); in the assay with M14 it was 60 µM (inactive); in the assay with MCF7 it was 40.6 µM (inactive).
In the case of `Cc1c(/C=N/N=C/c2[nH]c(C(=O)OC(C)(C)C)c(C)c2C)[nH]c(C(=O)OC(C)(C)C)c1C`, the GI50 in the assay on MOLT-4 was > 100 µM (inactive); in the assay with CAKI-1 it was > 100 µM (inactive); in the assay on SN12C, > 100 µM (inactive); with U-251, > 100 µM (inactive); in the assay with HCT-15, greater than 100 µM; in the assay with SK-MEL-2, > 100 µM (inactive). Also, the GI50 with LOX IMVI was 61 µM (inactive); with SF-268, > 100 µM (inactive); with SK-MEL-5 it was > 100 µM (inactive); in the assay with KM12, > 100 µM (inactive); in the assay with Malme-3M it was > 100 µM (inactive); with HCC 2998, > 100 µM (inactive). Moreover, the GI50 in the assay with A498 was > 100 µM (inactive); in the assay with K562, 59.4 µM (inactive); in the assay with SW-620 it was > 100 µM (inactive); in the assay on NCI-H460 it was 81.5 µM (inactive); in the assay with OVCAR-4 it was > 100 µM (inactive); with M14, > 100 µM (inactive).
